The text below walks through data of ChEMBL document CHEMBL1201862, “PubChem BioAssay data set” (2004).

Where “and” joins values, the source holds several entries; their conditions need not be identical. Identical values can stand only once. Calls of active or inactive are those of the source.

In assay [1] the target is DNA dC->dU-editing enzyme APOBEC-3G (Homo sapiens, UniProt Q9HC16). The assay is described as follows: APOBEC3G deaminase inhibitors, SAR follow-up, biochemical, fluorescence, single-stranded DNA substrate (AID 602136). It is filed as functional. Conditions: read-out: IC50_Mean.
Sequence of DNA dC->dU-editing enzyme APOBEC-3G (Q9HC16 whole entry): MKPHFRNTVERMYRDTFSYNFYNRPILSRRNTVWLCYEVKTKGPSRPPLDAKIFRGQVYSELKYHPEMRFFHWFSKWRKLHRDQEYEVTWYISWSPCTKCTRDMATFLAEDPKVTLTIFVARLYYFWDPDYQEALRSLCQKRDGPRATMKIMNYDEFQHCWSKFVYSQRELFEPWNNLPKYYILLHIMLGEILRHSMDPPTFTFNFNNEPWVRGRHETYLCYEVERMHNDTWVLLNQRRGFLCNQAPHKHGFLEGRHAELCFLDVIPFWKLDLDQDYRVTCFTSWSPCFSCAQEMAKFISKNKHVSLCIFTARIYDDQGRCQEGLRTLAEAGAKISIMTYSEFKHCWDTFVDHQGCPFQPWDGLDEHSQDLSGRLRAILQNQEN
The target in assay [2] is DNA dC->dU-editing enzyme APOBEC-3A (Homo sapiens, UniProt P31941). The assay is described as follows: SAR analysis of small molecule inhibitors of APOBEC3A DNA Deaminase via a fluorescence-based single-stranded DNA deaminase assay. It is filed as functional. Conditions: read-out: IC50_Mean.
Sequence of DNA dC->dU-editing enzyme APOBEC-3A (P31941 whole entry, the tested form may be a part): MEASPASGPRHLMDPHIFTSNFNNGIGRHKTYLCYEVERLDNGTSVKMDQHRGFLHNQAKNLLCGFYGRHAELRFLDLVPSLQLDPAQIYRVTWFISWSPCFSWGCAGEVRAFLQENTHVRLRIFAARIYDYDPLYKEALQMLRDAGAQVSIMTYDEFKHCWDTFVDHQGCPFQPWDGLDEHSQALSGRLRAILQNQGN
A short description of assay [3]: ARNT/TACC3 interaction disruptors, potency, confirmation, biochemical, AlphaScreen, cherry-picked samples (AID 651703).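 Also: His-tagged ARNT PAS-B domain paired with GST-TACC3 E629A dimer coactivator fragment; potency of inhibitors that break up the complex and lower AlphaScreen signal.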 It is filed as functional, Homo sapiens. For orientation: In Alpha technology, singlet oxygen from a donor bead excites a nearby acceptor bead.
Another assay in a line: cells. It is filed as functional.
Assay [4] has as its target T1, Multidrug resistance protein CDR2 (Candida albicans (strain SC5314 / ATCC MYA-2876) (Yeast), UniProt P78595).
T1 sequence (P78595 whole entry): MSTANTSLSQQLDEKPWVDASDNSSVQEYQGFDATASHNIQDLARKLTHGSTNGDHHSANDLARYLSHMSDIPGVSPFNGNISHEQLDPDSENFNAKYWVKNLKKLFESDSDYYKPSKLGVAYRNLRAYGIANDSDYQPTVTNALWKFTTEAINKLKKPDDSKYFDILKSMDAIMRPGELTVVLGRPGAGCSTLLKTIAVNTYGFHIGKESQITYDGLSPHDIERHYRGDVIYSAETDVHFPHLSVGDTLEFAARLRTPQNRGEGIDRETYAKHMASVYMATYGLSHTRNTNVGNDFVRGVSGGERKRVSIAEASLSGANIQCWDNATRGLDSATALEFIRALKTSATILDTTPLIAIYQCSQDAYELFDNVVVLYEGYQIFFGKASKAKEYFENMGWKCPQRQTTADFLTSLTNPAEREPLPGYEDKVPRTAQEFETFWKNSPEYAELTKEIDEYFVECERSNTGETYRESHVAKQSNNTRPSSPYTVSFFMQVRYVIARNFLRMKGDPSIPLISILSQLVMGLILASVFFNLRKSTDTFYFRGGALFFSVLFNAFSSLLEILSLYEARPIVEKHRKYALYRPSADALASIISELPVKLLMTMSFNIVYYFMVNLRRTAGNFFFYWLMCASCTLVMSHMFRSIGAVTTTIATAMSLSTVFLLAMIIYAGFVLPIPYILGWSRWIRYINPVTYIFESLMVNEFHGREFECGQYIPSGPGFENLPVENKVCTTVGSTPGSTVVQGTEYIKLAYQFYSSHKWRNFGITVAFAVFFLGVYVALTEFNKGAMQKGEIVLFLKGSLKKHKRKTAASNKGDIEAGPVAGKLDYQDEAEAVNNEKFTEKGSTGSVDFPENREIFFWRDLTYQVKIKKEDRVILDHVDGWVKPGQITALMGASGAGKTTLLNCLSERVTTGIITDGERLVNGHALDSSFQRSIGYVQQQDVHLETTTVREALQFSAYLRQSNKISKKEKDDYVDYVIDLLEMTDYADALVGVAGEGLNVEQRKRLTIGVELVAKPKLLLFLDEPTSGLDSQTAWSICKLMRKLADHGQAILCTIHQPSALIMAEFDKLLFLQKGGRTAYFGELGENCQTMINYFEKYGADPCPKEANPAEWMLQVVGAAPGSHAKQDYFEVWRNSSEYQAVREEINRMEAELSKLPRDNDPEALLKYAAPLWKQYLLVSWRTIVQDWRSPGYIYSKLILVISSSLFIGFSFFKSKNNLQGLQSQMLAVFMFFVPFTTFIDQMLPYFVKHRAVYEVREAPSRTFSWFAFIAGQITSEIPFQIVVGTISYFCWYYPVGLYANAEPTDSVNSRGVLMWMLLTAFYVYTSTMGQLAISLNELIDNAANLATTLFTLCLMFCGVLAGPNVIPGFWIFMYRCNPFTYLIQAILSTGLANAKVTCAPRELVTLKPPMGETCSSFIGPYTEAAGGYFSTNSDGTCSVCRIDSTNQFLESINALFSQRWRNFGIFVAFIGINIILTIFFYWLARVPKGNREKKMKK
The assay is described as follows: CaCDR2 efflux pump inhibitors in yeast, dose response, S. cerevisiae AD1-8u, singleplex, Cherry Pick1 hits (AID 588604). Type of assay: functional.

In assay [5] the target is Benomyl/methotrexate resistance protein (Candida albicans, UniProt P28873). The assay is described as follows: CaMdr1 efflux pump inhibitor potency, dose response, singleplex, Cherry Pick1 hits (AID 588608). It is filed as functional.
Sequence of Benomyl/methotrexate resistance protein (P28873 whole entry): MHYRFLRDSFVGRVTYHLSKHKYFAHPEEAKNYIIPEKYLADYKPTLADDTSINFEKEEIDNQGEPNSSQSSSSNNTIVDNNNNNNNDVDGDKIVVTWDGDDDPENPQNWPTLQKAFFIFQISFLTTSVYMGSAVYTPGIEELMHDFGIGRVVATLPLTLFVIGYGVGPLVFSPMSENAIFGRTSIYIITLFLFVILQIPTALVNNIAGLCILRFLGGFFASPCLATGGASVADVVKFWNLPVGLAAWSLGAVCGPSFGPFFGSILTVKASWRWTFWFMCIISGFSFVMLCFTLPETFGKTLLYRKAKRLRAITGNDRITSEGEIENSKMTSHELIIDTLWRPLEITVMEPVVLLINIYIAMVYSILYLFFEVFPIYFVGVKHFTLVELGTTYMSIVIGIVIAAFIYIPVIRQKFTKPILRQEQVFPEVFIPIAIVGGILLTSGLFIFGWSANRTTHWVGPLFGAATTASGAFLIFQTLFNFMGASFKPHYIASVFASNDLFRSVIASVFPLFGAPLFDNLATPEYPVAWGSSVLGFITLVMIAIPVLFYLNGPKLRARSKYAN
A short description of assay [6]: Counterscreen for antagonists of the orexin 1 receptor (OX1R; HCRTR1): Fluorescence-based cell-based high throughput dose response assay to identify antagonists of the parental CHO cell line. [Related pubchem assays (depositor defined):AID434989, AID435008, AID463079, AID485270, AID492963, AID492964, AID492965, AID493232, AID504699, AID504701]. Type of assay: functional. A general note: Counterscreens check selectivity or assay interference.

Another assay concerns the target T2, Coagulation factor XII (Homo sapiens, UniProt P00748).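 Also: activated factor XIIa alpha cleaving a fluorogenic AMC peptide substrate; inhibitor potency from loss of enzyme activity.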
T2 sequence (P00748 whole entry): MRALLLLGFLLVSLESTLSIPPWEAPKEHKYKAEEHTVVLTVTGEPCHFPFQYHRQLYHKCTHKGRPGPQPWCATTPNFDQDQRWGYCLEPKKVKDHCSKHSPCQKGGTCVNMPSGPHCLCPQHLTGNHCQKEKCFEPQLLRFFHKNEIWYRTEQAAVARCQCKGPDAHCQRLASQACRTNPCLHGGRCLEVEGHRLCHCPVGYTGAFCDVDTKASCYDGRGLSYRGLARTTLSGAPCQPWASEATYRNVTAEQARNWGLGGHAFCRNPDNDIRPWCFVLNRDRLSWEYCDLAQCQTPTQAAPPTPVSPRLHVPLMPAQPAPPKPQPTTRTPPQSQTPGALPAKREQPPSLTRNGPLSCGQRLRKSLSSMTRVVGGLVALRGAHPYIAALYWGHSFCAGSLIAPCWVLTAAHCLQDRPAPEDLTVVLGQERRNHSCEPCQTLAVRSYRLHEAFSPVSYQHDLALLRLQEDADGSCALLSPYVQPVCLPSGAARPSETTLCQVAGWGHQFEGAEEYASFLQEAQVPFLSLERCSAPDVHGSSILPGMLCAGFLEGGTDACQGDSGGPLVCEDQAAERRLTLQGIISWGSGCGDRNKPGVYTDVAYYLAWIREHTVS
It is filed as functional.

The target of assay [7] is T3, Orexin receptor type 2 (Homo sapiens, UniProt O43614).
T3 sequence (O43614 whole entry): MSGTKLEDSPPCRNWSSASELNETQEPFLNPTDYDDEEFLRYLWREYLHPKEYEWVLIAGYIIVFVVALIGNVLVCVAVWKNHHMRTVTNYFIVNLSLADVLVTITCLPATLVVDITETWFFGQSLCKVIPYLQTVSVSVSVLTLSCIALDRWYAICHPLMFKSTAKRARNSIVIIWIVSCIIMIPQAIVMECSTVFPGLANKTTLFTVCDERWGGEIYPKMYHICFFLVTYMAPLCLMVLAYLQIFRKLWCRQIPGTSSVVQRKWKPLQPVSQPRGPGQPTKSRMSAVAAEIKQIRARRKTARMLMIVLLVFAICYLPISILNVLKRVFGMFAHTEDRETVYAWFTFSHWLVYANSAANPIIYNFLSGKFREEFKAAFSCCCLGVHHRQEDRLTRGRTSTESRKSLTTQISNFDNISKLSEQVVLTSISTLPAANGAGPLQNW
The assay is described as follows: Counterscreen assay for antagonists of the orexin 1 receptor (OX1R; HCRTR1): Homogeneous Time Resolved Fluorescence (HTRF)-based cell-based dose response assay for antagonists of the orexin 2 receptor (OX2R; HCRTR2), run by assay provider. Type of assay: functional.

Assay [8] has as its target T3, Orexin receptor type 2. In words: Counterscreen assay for antagonists of the orexin 1 receptor (OX1R; HCRTR1): Fluorescence-based cell-based dose response assay for antagonists of the orexin 2 receptor (OX2R; HCRTR2), run by assay provider. Type of assay: functional.
Assay [9] has as its target T4, Orexin/Hypocretin receptor type 1 (Homo sapiens, UniProt O43613).
T4 sequence (O43613 whole entry): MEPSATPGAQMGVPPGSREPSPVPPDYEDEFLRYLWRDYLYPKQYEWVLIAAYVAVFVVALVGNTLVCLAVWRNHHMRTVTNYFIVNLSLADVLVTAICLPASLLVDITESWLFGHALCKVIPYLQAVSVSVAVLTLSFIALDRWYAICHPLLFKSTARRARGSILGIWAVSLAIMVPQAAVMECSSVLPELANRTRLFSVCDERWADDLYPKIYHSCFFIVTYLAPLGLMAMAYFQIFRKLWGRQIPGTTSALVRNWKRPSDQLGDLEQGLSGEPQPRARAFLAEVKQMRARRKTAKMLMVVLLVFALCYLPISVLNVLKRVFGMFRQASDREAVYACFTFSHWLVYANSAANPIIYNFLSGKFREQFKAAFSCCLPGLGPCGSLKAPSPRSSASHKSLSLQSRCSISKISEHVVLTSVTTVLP
In words: Fluorescence-based cell-based high throughput dose response assay for antagonists of the orexin 1 receptor (OX1R; HCRTR1). [Related pubchem assays (depositor defined):AID434989, AID435008, AID463079, AID485270, AID492963, AID492964, AID492965, AID493232, AID504717, AID504718]. Type of assay: functional.

A further assay concerns CHO-K1. In words: Counterscreen for antagonists of the orexin 1 receptor (OX1R; HCRTR1): Homogeneous time resolved fluorescence (HTRF)-based cell-based dose response assay to identify antagonists of the parental CHO-K1 cell line. [Related pubchem assays (depositor defined):AID434989, AID435008, AID463079, AID485270, AID492963, AID492964, AID492965, AID493232, AID504699, AID504701]. The following applies: Cricetulus griseus. It is filed as functional.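 Also: potency for inhibition of ATP-stimulated IP1 production as antagonists.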

The target in assay [10] is T4, Orexin/Hypocretin receptor type 1. In words: Homogeneous Time Resolved Fluorescence (HTRF)-based cell-based high throughput dose response assay for antagonists of the orexin 1 receptor (OX1R; HCRTR1). [Related pubchem assays (depositor defined):AID434989, AID435008, AID463079, AID485270, AID492963, AID492964, AID492965, AID493232, AID504717, AID504718]. Type of assay: functional. (In general: TR-FRET usually uses a lanthanide donor and a delayed reading to cut background.)

Assay [11] has as its target T5, ATP-dependent translocase ABCB1 (Homo sapiens, UniProt P08183). The assay is described as follows: ABCB1 efflux inhibitor potency, dose response, Jurkat-DNR cells, JC-1, flow cytometry, set 2 (AID 504569).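 Also: potency of pump inhibitors that raise cellular JC-1 green fluorescence up to the nicardipine level.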 Type of assay: functional. The following applies: read-out: EC50_MICROM_.
Assay [12] concerns the target T5, ATP-dependent translocase ABCB1. The assay is described as follows: ABCG2 efflux pump inhibitor potency, dose response, Ig-MXP3 cells, JC-1, flow cytometry, set 2 (AID 504566).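 Also: flow cytometry median green fluorescence of retained JC-1 dye; potency of efflux pump inhibition measured as rising substrate retention.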 It is filed as functional. Conditions: read-out: EC50_MICROM_.

T5 sequence (P08183 whole entry): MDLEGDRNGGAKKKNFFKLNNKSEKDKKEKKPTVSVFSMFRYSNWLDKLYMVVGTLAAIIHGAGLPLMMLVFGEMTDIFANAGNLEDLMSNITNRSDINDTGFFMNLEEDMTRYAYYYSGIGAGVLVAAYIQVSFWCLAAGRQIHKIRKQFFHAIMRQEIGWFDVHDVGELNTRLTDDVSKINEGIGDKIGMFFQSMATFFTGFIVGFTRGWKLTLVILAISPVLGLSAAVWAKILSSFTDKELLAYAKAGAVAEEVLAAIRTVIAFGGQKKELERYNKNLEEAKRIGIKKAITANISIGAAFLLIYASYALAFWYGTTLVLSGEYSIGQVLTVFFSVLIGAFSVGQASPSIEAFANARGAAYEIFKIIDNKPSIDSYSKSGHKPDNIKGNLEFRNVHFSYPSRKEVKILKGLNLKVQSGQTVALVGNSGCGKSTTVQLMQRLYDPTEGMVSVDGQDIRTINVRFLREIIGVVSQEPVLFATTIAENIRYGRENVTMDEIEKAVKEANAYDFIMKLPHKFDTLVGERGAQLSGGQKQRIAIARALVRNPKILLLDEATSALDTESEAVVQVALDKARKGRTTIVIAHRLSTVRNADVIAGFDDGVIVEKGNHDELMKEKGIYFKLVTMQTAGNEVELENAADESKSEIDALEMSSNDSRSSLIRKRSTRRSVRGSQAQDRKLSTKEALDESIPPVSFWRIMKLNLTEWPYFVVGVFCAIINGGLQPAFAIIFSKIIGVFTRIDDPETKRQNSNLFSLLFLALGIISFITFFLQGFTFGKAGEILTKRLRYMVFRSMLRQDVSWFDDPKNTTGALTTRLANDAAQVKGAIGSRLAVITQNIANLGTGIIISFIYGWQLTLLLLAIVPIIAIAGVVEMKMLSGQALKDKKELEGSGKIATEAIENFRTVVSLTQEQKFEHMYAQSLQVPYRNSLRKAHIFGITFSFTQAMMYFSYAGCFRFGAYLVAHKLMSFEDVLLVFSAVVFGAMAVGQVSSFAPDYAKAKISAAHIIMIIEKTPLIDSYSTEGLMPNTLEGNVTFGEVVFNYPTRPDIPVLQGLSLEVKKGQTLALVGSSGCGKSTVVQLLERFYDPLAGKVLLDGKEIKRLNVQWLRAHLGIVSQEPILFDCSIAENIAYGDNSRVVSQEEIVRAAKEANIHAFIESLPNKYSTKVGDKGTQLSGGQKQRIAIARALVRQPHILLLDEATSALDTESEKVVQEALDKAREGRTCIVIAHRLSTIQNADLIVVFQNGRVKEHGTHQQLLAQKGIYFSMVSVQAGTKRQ

`Cc1ccc(-c2nnc(SC(C)C(=O)NCc3ccco3)n2C)cc1` (stereo not drawn): the IC50 in assay [1] and in assay [2] was > 99 µM (inactive) in each case.

By AC50 is commonly meant the concentration at which the activity in the assay is half-maximal. Consider `O=C(N/N=C1/CCS(=O)(=O)c2ccc(F)cc21)c1ccccn1`, for which, in [3], the half-maximal activity concentration (AC50) was 78.4 µM (active).

Regarding `CCC(C)n1c(SCC(=O)NCc2ccco2)nnc1-c1cccc(S(=O)(=O)N2CCOCC2)c1` (stereo not drawn), the IC50 in assay [1] and in assay [2] was > 99 µM (inactive) each time.

As for `COc1ccc(CCOC(=O)c2ccc(N)c([N+](=O)[O-])c2)cc1`, in “cells”, the IC50 is 21 µM (active). Also, the EC50 is 4.29 µM (active) in assay [4] and 0.011 µM (active) in assay [5].

As to `Cc1ccc(C(=O)N/C(=C/c2ccc(-c3cccc([N+](=O)[O-])c3)o2)C(=O)NC(C)(C)C)cc1`, the IC50 in [6] is > 49.8 µM (inactive); at Coagulation factor XII, > 50 µM (inactive); at Orexin receptor type 2 [7], 2.42 µM (active); at Orexin receptor type 2 [8], 27.9 µM (inactive); in assay [9], > 5.53 µM (active); in the assay on CHO-K1, > 66.3 µM (inactive). The IC50 in assay [10] is 2.09 µM (active).

For `O=C(c1ccco1)N1CCN(c2cc(-c3ccccc3)nc3cc(-c4cccc(Cl)c4)nn23)CC1`, the EC50 in assay [11] was 2.67 µM (active) and 3.69 µM (active); in assay [12] it was 720 nM (active) and 2 µM (active).

`COC(=O)c1ccccc1NC(=O)CSc1nc(O)cc(=O)n1C1CCCC1`: the IC50 in assay [6] was > 49.8 µM (inactive); at Orexin receptor type 2 [7] it was > 50 µM (inactive); at Orexin receptor type 2 [8], 56.2 µM (inactive); in [9] it was 4.86 µM (active); with CHO-K1, > 66.2 µM (inactive); in [10], 0.137 µM (active).
